Assay results taken from ChEMBL document CHEMBL1201862, “PubChem BioAssay data set” (2004).
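Test compounds were applied to cells in 96-well plates for 48 hours at 5 doses. At the GI50, growth is halved.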 Active and inactive are the calls of the source. Rule as the data show it: active = GI50 up to about 1.1 µM and inactive = higher.

Columns and labels:
Assay in all cases: NCI tumour cell line growth inhibition, 48 h
OVCAR-4 = tested on: OVCAR-4
LOX IMVI = tested on: LOX IMVI
COLO 205 = tested on: COLO 205
KM12 = tested on: KM12
OVCAR-8 = tested on: OVCAR-8
MOLT-4 = tested on: MOLT-4
NCI-H522 = tested on: NCI-H522
OVCAR-3 = tested on: OVCAR-3
RPMI-8226 = tested on: RPMI-8226
A549 = tested on: A549
HOP-92 = tested on: HOP-92
HCT-116 = tested on: HCT-116
SNB-78 = tested on: SNB-78
UACC-62 = tested on: UACC-62
NCI-H23 = tested on: NCI-H23
DLD-1 = tested on: DLD-1
SF-539 = tested on: SF-539
RXF 631 = tested on: RXF 631
Malme-3M = tested on: Malme-3M
SF-295 = tested on: SF-295
UACC-257 = tested on: UACC-257
HOP-18 = tested on: HOP-18
SNB-19 = tested on: SNB-19
LXFL 529 = tested on: LXFL 529
HL-60 = tested on: HL-60
SN12C = tested on: SN12C
SW-620 = tested on: SW-620
786-0 = tested on: 786-0
SNB-75 = tested on: SNB-75
TK-10 = tested on: TK-10
OVCAR-5 = tested on: OVCAR-5
M19-MEL = tested on: M19-MEL
HCC 2998 = tested on: HCC 2998
SK-MEL-28 = tested on: SK-MEL-28
HOP-62 = tested on: HOP-62
M14 = tested on: M14
SR = tested on: SR
XF498 = tested on: XF498
SF-268 = tested on: SF-268
HCT-15 = tested on: HCT-15
SK-MEL-2 = tested on: SK-MEL-2
SK-OV-3 = tested on: SK-OV-3
ACHN = tested on: ACHN
UO-31 = tested on: UO-31
A498 = tested on: A498
DMS-273 = tested on: DMS-273
RXF 393 = tested on: RXF 393
HT-29 = tested on: HT-29
EKVX = tested on: EKVX
CCRF-CEM = tested on: CCRF-CEM
DMS-114 = tested on: DMS-114
SK-MEL-5 = tested on: SK-MEL-5
KM-20L2 = tested on: KM-20L2
NCI-H226 = tested on: NCI-H226
IGROV-1 = tested on: IGROV-1
U-251 = tested on: U-251
CAKI-1 = tested on: CAKI-1
K562 = tested on: K562
NCI-H460 = tested on: NCI-H460

COc1cc(OC)c2c(c1)C(=O)C(CC1(C)OCCCO1)=CC2=O
GI50 (OVCAR-4): 7.62 µM (inactive)
GI50 (LOX IMVI): 4.34 µM (inactive)
GI50 (COLO 205): 14.3 µM (inactive)
GI50 (KM12): 14.3 µM (inactive)
GI50 (OVCAR-8): 9.27 µM (inactive)
GI50 (MOLT-4): 2.05 µM (inactive)
GI50 (NCI-H522): 3.43 µM (inactive)
GI50 (OVCAR-3): 8.55 µM (inactive)
GI50 (RPMI-8226): 3.78 µM (inactive)
GI50 (A549): 18.9 µM (inactive)
GI50 (HOP-92): 1.83 µM (inactive)
GI50 (HCT-116): 5.35 µM (inactive)
GI50 (SNB-78): 7.96 µM (inactive)
GI50 (UACC-62): 5 µM (inactive)
GI50 (NCI-H23): 13.2 µM (inactive)
GI50 (DLD-1): 4.17 µM (inactive)
GI50 (SF-539): 12.8 µM (inactive)
GI50 (RXF 631): 22.3 µM (inactive)
GI50 (Malme-3M): 8.45 µM (inactive)
GI50 (SF-295): 14.6 µM (inactive)
GI50 (UACC-257): 13 µM (inactive)
GI50 (HOP-18): 13 µM (inactive)
GI50 (SNB-19): 18.2 µM (inactive)
GI50 (LXFL 529): 6.12 µM (inactive)
GI50 (HL-60): 2.17 µM (inactive)
GI50 (SN12C): 14 µM (inactive)
GI50 (SW-620): 7.57 µM (inactive)
GI50 (786-0): 9.77 µM (inactive)
GI50 (SNB-75): 11 µM (inactive)
GI50 (TK-10): 12.5 µM (inactive)
GI50 (OVCAR-5): 16.9 µM (inactive)
GI50 (M19-MEL): 3.37 µM (inactive)
GI50 (HCC 2998): 17.9 µM (inactive)
GI50 (SK-MEL-28): 11.6 µM (inactive)
GI50 (HOP-62): 19.1 µM (inactive)
GI50 (M14): 13 µM (inactive)
GI50 (SR): 1.29 µM (inactive)
GI50 (XF498): 9.48 µM (inactive)
GI50 (SF-268): 13.9 µM (inactive)
GI50 (HCT-15): 3.92 µM
GI50 (SK-MEL-2): 15.2 µM (inactive)
GI50 (SK-OV-3): 20 µM (inactive)
GI50 (ACHN): 9.75 µM (inactive)
GI50 (UO-31): 11 µM (inactive)
GI50 (A498): 18.4 µM (inactive)
GI50 (DMS-273): 7.48 µM (inactive)
GI50 (RXF 393): 3.54 µM (inactive)
GI50 (HT-29): 13.8 µM (inactive)
GI50 (EKVX): 14.3 µM (inactive)
GI50 (CCRF-CEM): 1.74 µM (inactive)
GI50 (DMS-114): 6.11 µM (inactive)
GI50 (SK-MEL-5): 8.04 µM (inactive)
GI50 (KM-20L2): 14.1 µM (inactive)
GI50 (NCI-H226): 19.6 µM (inactive)
GI50 (IGROV-1): 17.9 µM (inactive)
GI50 (U-251): 17.4 µM (inactive)
GI50 (CAKI-1): 8 µM (inactive)
GI50 (K562): 2.74 µM (inactive)
GI50 (NCI-H460): 18.6 µM (inactive)
